test: gradient 5% acetonitrile 3 min, to 50% in 2 min, to 85% in 15 min, held 3 min, 100 µL/min; conditions: column: Zorbax Extend-C18 2.1 x 50 mm; eluents: water / acetonitrile, 0.1% formic acid
In short: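 Pure standards were run in mixtures of ~100 molecules by HPLC coupled to a quadrupole time-of-flight mass spectrometer. The column was a Zorbax Extend-C18 (2.1 × 50 mm, 1.8 μm) at 100 μL/min, with water and acetonitrile each containing 0.1% formic acid, in positive and negative ionization mode. Dead and dwell volumes were 40 μL and 900 μL. Retention time was taken from computationally picked adduct peaks, each manually inspected, with data collected over 3 months.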

RP-LC retention time | SMILES
1100 s | Cc1ccc(-c2nnc(Cc3nc(-c4ccccc4F)no3)o2)cc1F
718 s | Cc1nnc(C2CCCCCN2C(=O)c2occc2C)o1 (stereo unspecified)
839 s | Cc1cc(OCC(=O)N(Cc2ccc(N(C)C)cc2)C2CCS(=O)(=O)C2)ccc1Cl (stereo unspecified)
564 s | CCN1CCN(c2cc(C(=O)O)c3cc(NC(=O)C(C)(C)C)ccc3n2)CC1
772 s | COc1ccc(OC)c(S(=O)(=O)Nc2cccn3c(C4CCC4)nnc23)c1
865 s | O=C(NCCC1CCN(S(=O)(=O)c2ccccc2)CC1)NC1CCCCC1
1130 s | CC(C)N1C(=O)C(C)(C(=O)N2CCN(c3ccccc3F)CC2)Oc2cccnc21 (stereo unspecified)
925 s | Cc1cccc(-c2noc(Cn3ccn(-c4cc(C)cc(C)c4)c(=O)c3=O)n2)c1
719 s | O=C(Nc1ccc2nncn2c1)c1cccc(Cl)c1
936 s | COc1cccc(-c2noc(C3CC(=O)N(c4cccc(Cl)c4)C3)n2)c1OC (stereo unspecified)
587 s | Cc1nn(CC(=O)NCCCN2CCCC2)c(=O)c2cc(-c3ccccc3)nn12
882 s | O=c1n(Cc2cccc(Cl)c2)nc2c(S(=O)(=O)N3CCCC3)cccn12
1110 s | COc1cc(OC)cc(-c2nc(C3CC(=O)N(c4ccc(F)c(Cl)c4)C3)no2)c1 (stereo unspecified)
548 s | Cc1cc(C)cc(NC(=O)CN2CCC(C(=O)NCc3ccccn3)CC2)c1
865 s | CCCn1cc(CCNS(=O)(=O)c2ccc(OC)c(Cl)c2)c2cccnc21
813 s | CC(=O)N(CC(=O)N1CCc2sccc2C1COc1ccc(F)cc1)CC1CCCO1 (stereo unspecified)
659 s | Cc1cc(C)c(S(=O)(=O)NCCn2c(C)cnc2C2CC2)cc1C
735 s | Cc1cc(-c2ccc(S(=O)(=O)N3CCC(C(=O)NCc4cccs4)CC3)o2)n[nH]1
702 s | Cc1cc(S(=O)(=O)N2CCC(n3cnnc3C)CC2)ccc1F
1110 s | COc1ccc(-c2csc(C)n2)cc1S(=O)(=O)N1CCN(c2ccccc2F)CC1
652 s | CCc1c(C2CCN(C(=O)c3ccnn3CC)CC2)noc1N
1140 s | Cc1cc(C(=O)Nc2nc(-c3cccc(Cl)c3)c(C)s2)no1
648 s | CSc1ccc(CNC(=O)COc2cc(C)nc(N3CCCC3)n2)cc1
736 s | COCc1nncn1C1CCN(S(=O)(=O)c2cc(Cl)ccc2OC)CC1
647 s | Cc1ccc(C(=O)N2CCN(c3nnc4ccccn34)CC2)cc1F
682 s | O=C(NCC(c1ccc2c(c1)OCO2)N1CCN(c2ccc(F)cc2)CC1)C1CC1 (stereo unspecified)
635 s | O=C(Cc1cccs1)NCC1CCN(C(=O)Oc2ccccc2)CC1

RP-LC retention time | SMILES
664 s | COc1cccc(S(=O)(=O)N2CCC(Cc3nncn3C(C)C)C2)c1 (stereo unspecified)
865 s | COc1ccc(C2(C(=O)NCc3nn(C)c4c3CN(C)CC4)CC2)cc1
862 s | CCOc1ccc2c(n1)CCN(C(=O)Nc1cc(C)ccc1C)C2
706 s | CN1C(=O)CSc2cnn(CC(=O)N3CCN(c4ccc(F)cc4)CC3)c(=O)c21
1170 s | Cc1cc(C)cc(N2C(=O)C3N=NN(c4ccc(C)c(Cl)c4)C3C2=O)c1 (stereo unspecified)
586 s | Cc1ccc(-c2[nH]ncc2CN)cc1C
799 s | Cc1cc(C(=O)NC2CCCCCC2)nn1C
793 s | CC1=C(c2ccc(C)c(C)c2)S(=O)(=O)N=C1N1CCCN(C(=O)C2CC2)CC1
742 s | Cc1ccc(-n2nnc(-c3nc(C)c(C(=O)N4CCC(C(N)=O)CC4)s3)c2C)cc1C
815 s | COc1ccc(S(=O)(=O)N2CCC(n3cnnc3-c3ccccc3)CC2)cc1Cl
1000 s | CCC(C)CC(=O)N1CCCN(C2=NS(=O)(=O)C(c3ccc(C(C)C)cc3)=C2C)CC1 (stereo unspecified)
779 s | CSc1cccc(NC(=O)N2CCC(N3CCN(Cc4cccc(F)c4)C(=O)C3=O)CC2)c1
742 s | O=C(Nc1cccc(-c2ccc(N3CCCCC3)nn2)c1)Nc1ccccc1F
939 s | O=C(NCc1cccs1)c1nnc(-c2ccc(S(=O)(=O)N3CCCCC3)cc2)o1
616 s | Cn1c(=O)c(-c2ccc(C(=O)NCCCN3CCCC3)cc2)nc2ccccc21
671 s | CCn1c(SCC(=O)N(C)C)nnc1-c1ccc2c(c1)OCCCO2
915 s | Cn1cnc(S(=O)(=O)N2CC(Oc3ccccc3-c3nc(-c4ccccc4)no3)C2)c1
962 s | CCCn1cc(CCNS(=O)(=O)c2c(C)cc(C)cc2C)c2cccnc21
863 s | CC1CCC2(CC1)NC(=O)N(CC(=O)NCCc1ccc(Cl)cc1)C2=O (stereo unspecified)
772 s | CC(C)(C)c1ccc(C(=O)Nc2ccc3nnc(C4CCC4)n3c2)cc1
1100 s | CN(Cc1ccccc1)C(=O)C1CCN(S(=O)(=O)c2ccc(-c3noc(C4CC4)n3)cc2)CC1
727 s | Cc1cc(-c2nnc3sc(COc4ccc(F)cc4)nn23)n[nH]1
781 s | O=C(Nc1ccc(C(F)(F)F)cc1)N1CCCC1c1nncn1C1CCCC1 (stereo unspecified)
785 s | CCCc1noc(-c2cccnc2N2CCCN(Cc3cccc(C(F)(F)F)c3)CC2)n1
655 s | CCN(CC)c1ccc(-c2noc(CN3CCN(c4ncccn4)CC3)n2)cn1
644 s | CCCNC(=O)C1CCN(c2ccc(SCC(=O)NCc3ccccc3Cl)nn2)CC1

Continued, molecule first:

SMILES | RP-LC retention time
OC(c1ccc(C(F)(F)F)cc1)c1cccnc1 (stereo unspecified) | 630 s
O=C(Nc1cccc(Cl)c1)c1cn(CC(O)c2ccc3c(c2)OCO3)nn1 (stereo unspecified) | 863 s
COc1ccc2c(=O)c(Oc3ccccc3F)c(C)oc2c1 | 888 s
O=C(NC1CCCc2ccccc21)C1CCN(C(=O)C2Sc3ccccc3NC2=O)CC1 (stereo unspecified) | 793 s
COc1ccc2[nH]cc(CCO)c2c1 | 660 s
O=C(CN1CC=C(c2cnn(-c3ccccc3)c2)CC1)NCc1ccco1 | 646 s
Cn1cc(-c2nc(C(=O)NCc3ccccc3F)cs2)c2cccnc21 | 908 s
Cc1ccccc1Nc1c(-c2ccc3c(c2)OCO3)nc2cnccn12 | 860 s
CCOc1ccc(C(C)NC(=O)c2cn3ccc(C)cc3n2)cc1 (stereo unspecified) | 697 s
COc1ccc(NC(=O)CCNc2cnc3cnccn23)cc1Cl | 603 s
Cn1cc(CCN2CCC(C(=O)N3CCN(c4ccccc4)CC3)CC2)c2cccnc21 | 617 s
COc1ccc(-c2nc(-c3cn(-c4ccc(C)cc4)nn3)no2)c(OC)c1 | 1050 s
Cc1cccc(-c2nc(CNC(=O)C(C)(C)C)no2)c1 | 826 s
CCNC(=O)N1CC(C(=O)N(C)C)C2(CCOCC2)C1 (stereo unspecified) | 520 s
CCOc1ccc2c(n1)CCN(C(=O)C1(c3ccc(OC)cc3)CC1)C2 | 683 s
O=C(NCCc1c[nH]c2ccc(F)cc12)c1ccc(F)cc1 | 831 s
COc1ccccc1-c1noc(Cn2ncn3nc(-c4ccccc4Cl)cc3c2=O)n1 | 1040 s
O=C(CCNc1cnc2cnccn12)NCc1cccc(C(F)(F)F)c1 | 608 s
CC[C@H](NC(=O)c1c(C)c(-c2ccccc2)nc2ccccc12)c1ccccc1 | 1060 s

SMILES | RP-LC retention time
CCC(=O)NC(C)c1nc(-c2ccccc2Cl)no1 (stereo unspecified) | 740 s
O=C(OCc1cc(-c2ccc3c(c2)OCCO3)on1)c1ccc(Br)o1 | 978 s
O=C(Nc1ccc(OC2CCNCC2)nc1)C1(c2ccccc2)CC1 | 646 s
Cc1ccc(CSc2ncnc3nc[nH]c23)cc1 | 774 s
COc1ccc(C2C(C(=O)NCc3ccccc3OC)c3ccccc3C(=O)N2C)cc1 (stereo unspecified) | 864 s
CN1CCCc2cc(C(CNC(=O)C(=O)NCCN3CCOCC3)N3CCCCC3)ccc21 (stereo unspecified) | 558 s
COc1ccc(CCC(=O)NCC2(c3cccs3)CCCC2)cc1 | 947 s
COc1ccc(N2CC(C(=O)NCCc3c[nH]c4ccccc34)CC2=O)cc1 (stereo unspecified) | 725 s
CN(CC(O)COc1ccc2c(c1)OCO2)C1CCCCC1 (stereo unspecified) | 567 s
COc1ccc(CNC(=O)NCCOc2cc(C)cc(C)c2)cc1OC | 782 s
O=C(Nc1nc2c(s1)CN(C(=O)c1cc(-c3ccccc3)on1)CC2)C1CCCO1 (stereo unspecified) | 785 s
CCC1=NS(=O)(=O)c2cccnc2N1c1ccc(OC)cc1 | 819 s
CCOc1ccc(CN(C(=O)Cc2coc3ccc(CC)cc23)C2CCS(=O)(=O)C2)cc1 (stereo unspecified) | 1050 s
O=C(NCc1cccs1)C1CCN(C(=O)C2Sc3ccccc3NC2=O)CC1 (stereo unspecified) | 714 s
COc1ccc(NC(=O)c2ccc(N3C(=O)CCC3=O)cc2)c([N+](=O)[O-])c1 | 716 s
NC(=O)c1ccccc1NC(=O)Cc1cn(Cc2ccccc2)c2ccccc12 | 853 s
CCOC(=O)c1[nH]c(C)c(CCC(=O)Nc2ccc3c(c2)OCCO3)c1C | 805 s
CSc1ccc(-c2nc3nc(C)cc(C)n3c2Nc2c(C)cccc2C)cc1 | 808 s
O=C(NCC1(CO)CC1)c1cc(-c2ccccc2)on1 | 703 s

Reference: the METLIN SMRT retention time set (Domingo-Almenara et al. 2019)
